The text below walks through data of ChEMBL document CHEMBL3886683, “Apoptosis signal-regulating kinase inhibitor” (2016).

Assay [1] deals with T1, Cytochrome P450 3A4 (Homo sapiens, UniProt P08684). In words: Inhibition Assay: Six test compound concentrations (0.1, 0.25, 1, 2.5, 10, 25 μM in DMSO; final DMSO concentration=0.275%) are incubated with human liver microsomes (0.5 mg/mL) and NADPH (1 mM) in the presence of the probe substrate testosterone (50 μM) for 5 min at 37° C. The selective CYP3A4 inhibitor, ketoconazole, is screened alongside the test compounds as a positive control. On the technique in general: Liver microsomes are vesicles of endoplasmic reticulum, rich in cytochrome P450 enzymes.
T1 sequence (P08684 whole entry): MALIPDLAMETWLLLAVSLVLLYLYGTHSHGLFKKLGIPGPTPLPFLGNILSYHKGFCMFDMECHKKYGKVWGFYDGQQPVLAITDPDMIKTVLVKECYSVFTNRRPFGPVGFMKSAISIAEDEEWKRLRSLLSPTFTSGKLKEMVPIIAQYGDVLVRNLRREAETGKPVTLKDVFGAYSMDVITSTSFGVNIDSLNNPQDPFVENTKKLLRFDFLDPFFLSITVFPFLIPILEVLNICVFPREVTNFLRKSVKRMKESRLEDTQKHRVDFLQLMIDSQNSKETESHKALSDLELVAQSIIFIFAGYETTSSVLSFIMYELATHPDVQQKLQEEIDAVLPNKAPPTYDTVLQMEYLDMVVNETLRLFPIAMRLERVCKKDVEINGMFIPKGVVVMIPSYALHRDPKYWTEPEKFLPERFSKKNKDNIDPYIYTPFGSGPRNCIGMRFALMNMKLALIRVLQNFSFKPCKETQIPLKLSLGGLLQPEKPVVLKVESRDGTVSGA

The target in another assay is T2, Cytochrome P450 2C8 (Homo sapiens, UniProt P10632).
T2 sequence (P10632 whole entry): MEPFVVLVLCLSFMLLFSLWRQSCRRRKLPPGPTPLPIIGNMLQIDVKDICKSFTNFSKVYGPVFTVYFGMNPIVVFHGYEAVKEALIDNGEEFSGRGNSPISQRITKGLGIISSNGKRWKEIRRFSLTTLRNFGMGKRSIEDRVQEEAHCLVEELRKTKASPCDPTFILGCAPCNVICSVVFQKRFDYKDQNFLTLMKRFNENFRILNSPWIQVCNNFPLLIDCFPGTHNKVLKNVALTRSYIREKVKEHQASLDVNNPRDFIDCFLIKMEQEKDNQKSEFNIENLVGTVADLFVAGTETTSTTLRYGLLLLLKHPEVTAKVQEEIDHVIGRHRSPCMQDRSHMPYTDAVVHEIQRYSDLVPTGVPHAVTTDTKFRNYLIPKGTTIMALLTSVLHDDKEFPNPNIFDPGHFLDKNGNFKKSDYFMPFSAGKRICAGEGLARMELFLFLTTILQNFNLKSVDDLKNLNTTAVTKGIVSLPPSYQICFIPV
In words: Inhibition Assay: Six test compound concentrations (0.1, 0.25, 1, 2.5, 10, 25 μM in DMSO; final DMSO concentration=0.3%) are incubated with human liver microsomes ([…]) and NADPH (1 mM) in the presence of the probe substrate paclitaxel (7.5 μM) for 30 min at 37° C. The selective CYP2C8 inhibitor, montelukast, is screened alongside the test compounds as a positive control.

In the next assay the target is Cytochrome P450 2C9 (Homo sapiens, UniProt P11712). In words: Inhibition Assay: Six test compound concentrations (0.1, 0.25, 1, 2.5, 10, 25 μM in DMSO; final DMSO concentration=[…]) are incubated with human liver microsomes (1 mg/mL) and NADPH (1 mM) in the presence of the probe substrate tolbutamide (120 μM) for 60 min at 37° C. The selective CYP2C9 inhibitor, sulphaphenazole, is screened alongside the test compounds as a positive control.
Chain of Cytochrome P450 2C9 (P11712 whole entry): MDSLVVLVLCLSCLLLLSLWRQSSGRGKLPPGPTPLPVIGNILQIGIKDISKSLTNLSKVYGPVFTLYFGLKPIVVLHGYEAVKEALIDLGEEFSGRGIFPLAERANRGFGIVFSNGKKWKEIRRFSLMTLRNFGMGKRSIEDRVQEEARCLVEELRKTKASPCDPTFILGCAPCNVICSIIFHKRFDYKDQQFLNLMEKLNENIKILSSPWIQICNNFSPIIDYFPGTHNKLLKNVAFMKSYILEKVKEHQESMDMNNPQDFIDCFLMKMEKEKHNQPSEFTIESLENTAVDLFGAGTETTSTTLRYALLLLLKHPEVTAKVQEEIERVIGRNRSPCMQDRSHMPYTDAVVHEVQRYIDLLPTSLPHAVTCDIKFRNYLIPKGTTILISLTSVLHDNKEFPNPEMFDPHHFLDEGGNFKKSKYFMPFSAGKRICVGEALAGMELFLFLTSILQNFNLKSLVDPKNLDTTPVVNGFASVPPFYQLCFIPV

For the next assay, the target named is T3, Cytochrome P450 2B6 (Homo sapiens, UniProt P20813).
T3 sequence (P20813 whole entry): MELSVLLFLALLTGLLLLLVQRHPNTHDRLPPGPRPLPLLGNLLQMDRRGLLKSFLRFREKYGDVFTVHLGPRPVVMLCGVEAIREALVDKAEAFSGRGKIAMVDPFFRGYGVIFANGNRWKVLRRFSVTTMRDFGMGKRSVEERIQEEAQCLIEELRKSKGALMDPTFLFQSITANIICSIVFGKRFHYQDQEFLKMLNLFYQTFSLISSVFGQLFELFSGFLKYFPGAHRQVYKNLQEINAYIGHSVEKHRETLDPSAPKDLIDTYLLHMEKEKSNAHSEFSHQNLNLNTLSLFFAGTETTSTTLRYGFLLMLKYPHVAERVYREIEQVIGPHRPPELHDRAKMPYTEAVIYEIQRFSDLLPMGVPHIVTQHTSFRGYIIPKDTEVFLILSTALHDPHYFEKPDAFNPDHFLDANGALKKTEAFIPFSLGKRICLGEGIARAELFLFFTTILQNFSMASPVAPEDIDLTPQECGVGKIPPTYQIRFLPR
In words: Inhibition Assay: Six test compound concentrations (0.1, 0.25, 1, 2.5, 10, 25 μM in DMSO; final DMSO concentration=0.3%) are incubated with human liver microsomes (0.1 mg/mL) and NADPH (1 mM) in the presence of the probe substrate bupropion (110 μM) for 5 min at 37° C. The selective CYP2B6 inhibitor, ticlopidine, is screened alongside the test compounds as a positive control.

Assay [2] concerns the target T1, Cytochrome P450 3A4. Nature of the assay: Inhibition Assay: Six test compound concentrations (0.1, 0.25, 1, 2.5, 10, 25 μM in DMSO; final DMSO concentration=0.26%) are incubated with human liver microsomes (0.1 mg/mL) and NADPH (1 mM) in the presence of the probe substrate midazolam ([…]) for 5 min at 37° C. The selective CYP3A4 inhibitor, ketoconazole, is screened alongside the test compounds as a positive control.

The target in the next assay is Cytochrome P450 2C19 (Homo sapiens, UniProt P33261). Nature of the assay: Inhibition Assay: Six test compound concentrations (0.1, 0.25, 1, 2.5, 10, 25 μM in DMSO; final DMSO concentration=[…]) are incubated with human liver microsomes (0.5 mg/mL) and NADPH (1 mM) in the presence of the probe substrate mephenytoin (25 μM) for 60 min at 37° C. The selective CYP2C19 inhibitor, tranylcypromine, is screened alongside the test compounds as a positive control.
Chain of Cytochrome P450 2C19 (P33261 whole entry): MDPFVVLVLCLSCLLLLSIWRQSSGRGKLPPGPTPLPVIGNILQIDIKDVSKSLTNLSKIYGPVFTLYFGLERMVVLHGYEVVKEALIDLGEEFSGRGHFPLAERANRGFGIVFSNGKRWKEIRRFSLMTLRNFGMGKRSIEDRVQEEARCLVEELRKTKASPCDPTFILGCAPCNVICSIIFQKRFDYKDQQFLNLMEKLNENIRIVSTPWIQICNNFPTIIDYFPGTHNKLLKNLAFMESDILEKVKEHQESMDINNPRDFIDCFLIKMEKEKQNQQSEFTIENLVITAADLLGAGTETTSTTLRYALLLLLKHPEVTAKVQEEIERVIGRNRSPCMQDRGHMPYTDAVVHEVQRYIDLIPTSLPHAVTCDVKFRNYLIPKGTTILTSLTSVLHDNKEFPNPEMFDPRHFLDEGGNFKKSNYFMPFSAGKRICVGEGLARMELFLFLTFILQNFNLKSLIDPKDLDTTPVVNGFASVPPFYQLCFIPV

Another assay concerns the target T4, Cytochrome P450 1A1 (Homo sapiens, UniProt P04798).
T4 sequence (P04798 whole entry): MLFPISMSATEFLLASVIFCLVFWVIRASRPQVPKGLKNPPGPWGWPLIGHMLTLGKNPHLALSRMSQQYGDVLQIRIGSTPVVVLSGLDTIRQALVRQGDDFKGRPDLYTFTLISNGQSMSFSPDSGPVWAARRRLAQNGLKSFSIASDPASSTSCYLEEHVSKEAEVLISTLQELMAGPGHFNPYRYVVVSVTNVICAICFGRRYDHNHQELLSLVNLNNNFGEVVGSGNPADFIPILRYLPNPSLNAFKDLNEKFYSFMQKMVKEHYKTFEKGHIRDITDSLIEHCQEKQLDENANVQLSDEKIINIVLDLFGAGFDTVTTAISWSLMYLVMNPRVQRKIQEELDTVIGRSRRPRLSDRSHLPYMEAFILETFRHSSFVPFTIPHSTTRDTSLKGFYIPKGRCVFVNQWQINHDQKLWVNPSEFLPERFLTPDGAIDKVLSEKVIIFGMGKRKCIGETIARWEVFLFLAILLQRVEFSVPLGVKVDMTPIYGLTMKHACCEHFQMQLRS
Nature of the assay: Inhibition Assay: Six test compound concentrations (0.1, 0.25, 1, 2.5, 10, 25 μM in DMSO; final DMSO concentration=0.3%) are incubated with human liver microsomes ([…]) and NADPH (1 mM) in the presence of the probe substrate ethoxyresorufin (0.5 μM) for 5 min at 37° C. The selective CYP1A inhibitor, alpha-naphthoflavone, is screened alongside the test compounds as a positive control.

Each structure is given as a SMILES string. Some results are limits rather than exact numbers.

The term IC50 denotes the point on the concentration scale where inhibition reaches its midpoint. Consider `C[C@]12CC[C@H]3[C@@H](C[C@@H](O)C4=CC(=O)CC[C@@]43C)[C@@H]1CC[C@@H]2O` [6beta-hydroxytestosterone], for which the concentration for half-maximal inhibition (IC50) on Cytochrome P450 3A4 [1] was 10.5 µM. As for `CC(=O)O[C@H]1C(=O)[C@@]2(C)[C@H]([C@H](OC(=O)c3ccccc3)[C@]3(O)C[C@H](OC(=O)[C@H](O)[C@@H](NC(=O)c4ccccc4)c4ccccc4)C(C)=C1C3(C)C)[C@]1(OC(C)=O)CO[C@@H]1[C@@H](O)[C@@H]2O`, at Cytochrome P450 2C8, the IC50 was 21.6 µM. For `CCCCNC(=O)NS(=O)(=O)c1ccc(CO)cc1`, at Cytochrome P450 2C9, the half-inhibitory concentration (IC50) is above 25 µM. Take `CC(NC(C)(C)CO)C(=O)c1cccc(Cl)c1` (configuration not stated): at Cytochrome P450 2B6, the IC50 worked out at 19.2 µM.

On to `OCc1ncc2n1-c1ccc(Cl)cc1C(c1ccccc1F)=NC2` [ALPHA-HYDROXY-MIDAZOLAM], for which the IC50 at Cytochrome P450 3A4 [2] worked out at 2.7 µM. Regarding `CCC1(c2ccc(O)cc2)NC(=O)N(C)C1=O` (configuration not stated), at Cytochrome P450 2C19, the IC50 was above 25 µM.

For the molecule `O=c1ccc2nc3ccc(O)cc3oc-2c1`, the IC50 on Cytochrome P450 1A1 is above 25 µM.
